Earlier results on 11 compounds are cited in patent US6682694B2, “Uncomplexed cyclodextrin solutions for odor control on inanimate surfaces” (The Procter & Gamble Company, priority 1994, dated 2004).

The conditions of the data set: for water solubility: in water.

On to `ClC=CC[N+]12CN3CN(CN(C3)C1)C2.[Cl-]` [Dowicil 200, 1-(3-Chlorallyl)-3,5,7-triaza-1-azoniaadamantane chloride], for which the “solubility in water” value is recorded as “freely soluble in water”.

Turning to `OCCOc1ccccc1` [2-phenoxyethanol], the water solubility entry is on record as “about 2.67%”.

`[H]/N=C(\N/C(=N/[H])NCCCCCCNC(=N)NC(=N)Nc1ccc(Cl)cc1)Nc1ccc(Cl)cc1` [chlorhexidine diacetate, 1,1′-hexamethylene bis(5-(p-chlorophenyl)biguanide), reference compound]: the water solubility entry is recorded as “about 1.8%”.

For `CC(C)(O)C(Cl)(Cl)Cl` [chlorobutanol, 1,1,1-Trichloro-2-methylpropan-2-ol, reference compound], the water solubility result is “about 0.8%”.

Take `OCc1ccccc1` [benzyl alcohol]: the water solubility result is on record as “about 4%”.

Regarding `OCCc1ccccc1` [2-phenylethanol], the water solubility result is recorded as “about 2%”.

As to `O=[N+]([O-])C(Br)(CO)CO` [Bronopol, 2-bromo-2-nitropropane-1,3-diol], the water solubility entry is recorded as “about 25%”.

As for `O=[N+]([O-])C1(Br)COCOC1` [Bronidox L, 5-bromo-5-nitro-1,3-dioxane], the water solubility entry is reported as “about 0.46%”.

For the compound `CC1(C)C(=O)N(CO)C(=O)N1CO` [DMDM hydantoin, 1,3-bis(hydroxymethyl)-5,5-dimethyl-2,4-imidazolidinedione], the water solubility result is listed as “more than 50%”.

For `[H]/N=C(\N/C(=N/[H])NCCCCCCNC(=N)NC(=N)Nc1ccc(Cl)cc1)Nc1ccc(Cl)cc1` [chlorhexidine digluconate, 1,1′-hexamethylene bis(5-(p-chlorophenyl)biguanide), reference compound], the water solubility entry is “about 70%”.

Consider `[Na+].[O-][n+]1ccccc1[S-]` [sodium pyrithione], for which the water solubility entry was “about 50%”.
